“Also recorded” adds a separate entry of the source.
Experiments:
[1] = test system: SoHPPD F39W, L367V, I375L (short); test: In vitro HPPD activity assay; type: biochemical, Scenedesmus obliquus; conditions: normalized on Arabidopsis wild-type HPPD (SEQ ID NO:42)
Description: (§1) HPPD produces homogentisic acid and CO2 from 4-hydroxyphenylpyruvate (4-HPP) and O2. The activity assay for HPPD is based on the analysis of homogentisic acid by reversed phase HPLC.
(§2) The assay mixture can contain 150 mM potassium phosphate buffer pH 7.0, 50 mM L-ascorbic acid, 100 μM Catalase (Sigma-Aldrich), 1 μM FeSO4 and 0.2 units of purified mutated HPPD enzyme in a total volume of 505 μl. 1 unit is defined as the amount of enzyme that is required to produce 1 nmol of HGA per minute at 20° C.
(§3) After a preincubation of 30 min the reaction is started by adding 4-HPP to a final concentration of 0.05 mM. The reaction is allowed to proceed for 45 min at room temperature. The reaction is stopped by the addition of 50 μl of 4.5 M phosphoric acid. The sample is filtered using a […] pore size PVDF filtration device.
(§4) 5 μl of the cleared sample is analyzed on an UPLC HSS T3 column (particle size 1.8 μm, dimensions 2.1×50 mm; Waters) by isocratic elution using 90% 20 mM NaH2PO4 pH 2.2, 10% methanol (v/v).
(§5) HGA is detected electrochemically at 750 mV (mode: DC; polarity: positive) and quantified by integrating peak areas (Empower software; Waters).
(§6) Inhibitors are dissolved in DMSO (dimethylsulfoxide) to a concentration of 0.5 mM. From this stock solution serial five-fold dilutions are prepared in DMSO, which are used in the assay. The respective inhibitor solution accounts for 1% of the assay volume. Thus, final inhibitor concentrations range from 5 μM to 320 pM, respectively. Activities are normalized by setting the uninhibited enzyme activity to 100%. IC50 values are calculated using non-linear regression.
(§7) Using methods which are described in the above examples or well known in the art, purified, recombinant mutated HPPD enzymes are characterized with respect to their kinetic properties and sensitivity towards HPPD inhibiting herbicides. Apparent michaelis constants (Km) and maximal reaction velocities (Vmax) are calculated by non-linear regression with the software GraphPad Prism 5 (GraphPad Software, La Jolla, USA) using a substrate inhibition model. Apparent kcat values are calculated from Vmax assuming 100% purity of the enzyme preparation. Weighted means (by standard error) of Km and IC50 values are calculated from at least three independent experiments. The Cheng-Prusoff equation for competitive inhibition (Cheng, Y. C.; Prusoff, W. H. Biochem Pharmacol 1973, 22, 3099-3108) is used to calculate dissociation constants (Ki).
(§8) Field performance of the HPPD enzyme, which is used as a herbicide tolerance trait may depend not only on its lack of sensitivity towards HPPD inhibiting herbicides but also on its activity. To assess the potential performance of a herbicide tolerance trait a tolerance index (TI) is calculated using the following formula: […]
(§9) Easy comparison and ranking of each trait is enabled by normalizing tolerance indexes on Arabidopsis wild-type HPPD.

[2] = test system: SoHPPD F363I (short); test: In vitro HPPD activity assay; type: biochemical, Scenedesmus obliquus; conditions: normalized on Arabidopsis wild-type HPPD (SEQ ID NO:42)
Description: as §1, §2, §3, §4, §5, §6, §7, §8, §9

[3] = test system: SoHPPD Q317H (short); test: In vitro HPPD activity assay; type: biochemical, Scenedesmus obliquus; conditions: normalized on Arabidopsis wild-type HPPD (SEQ ID NO:42)
Description: as §1, §2, §3, §4, §5, §6, §7, §8, §9

[4] = test system: SoHPPD E345Q, K326Q (short); test: In vitro HPPD activity assay; type: biochemical, Scenedesmus obliquus; conditions: normalized on Arabidopsis wild-type HPPD (SEQ ID NO:42)
Description: as §1, §2, §3, §4, §5, §6, §7, §8, §9

[5] = test system: SoHPPD H306K (short); test: In vitro HPPD activity assay; type: biochemical, Scenedesmus obliquus; conditions: normalized on Arabidopsis wild-type HPPD (SEQ ID NO:42)
Description: as §1, §2, §3, §4, §5, §6, §7, §8, §9

[6] = test system: SoHPPD Q317H, A318G, E345Q; test: In vitro HPPD activity assay; type: biochemical, Scenedesmus obliquus; conditions: normalized on Arabidopsis wild-type HPPD (SEQ ID NO:42)
Description: as §1, §2, §3, §4, §5, §6, §7, §8, §9

[7] = test system: SoHPPD V251A, H306R, Q317L, A318P, G321P, K331E, L350M (short); test: In vitro HPPD activity assay; type: biochemical, Scenedesmus obliquus; conditions: normalized on Arabidopsis wild-type HPPD (SEQ ID NO:42)
Description: as §1, §2, §3, §4, §5, §6, §7, §8, §9

[8] = test system: SoHPPD Q317M (short); test: In vitro HPPD activity assay; type: biochemical, Scenedesmus obliquus; conditions: normalized on Arabidopsis wild-type HPPD (SEQ ID NO:42)
Description: as §1, §2, §3, §4, §5, §6, §7, §8, §9

[9] = test system: SoHPPD A318R, L350M (short); test: In vitro HPPD activity assay; type: biochemical, Scenedesmus obliquus; conditions: normalized on Arabidopsis wild-type HPPD (SEQ ID NO:42)
Description: as §1, §2, §3, §4, §5, §6, §7, §8, §9

[10] = test system: SoHPPD Q317H; test: In vitro HPPD activity assay; type: biochemical, Scenedesmus obliquus; conditions: normalized on Arabidopsis wild-type HPPD (SEQ ID NO:42)
Description: as §1, §2, §3, §4, §5, §6, §7, §8, §9

[11] = test system: SoHPPD I455V; test: In vitro HPPD activity assay; type: biochemical, Scenedesmus obliquus; conditions: normalized on Arabidopsis wild-type HPPD (SEQ ID NO:42)
Description: as §1, §2, §3, §4, §5, §6, §7, §8, §9

[12] = biological target: Scenedesmus Short HPPD (Seq ID: 4) (Tetradesmus obliquus, UniProt A0A383WMN4, DEL398-433/N195D); test: In vitro HPPD activity assay; type: biochemical; conditions: for TI (normalized tolerance index): normalized on Arabidopsis wild-type HPPD (SEQ ID NO:42)
Description: as §1, §2, §3, §4, §5, §6, §7, §8, §9

[13] = biological target: Scenedesmus HPPD (Seq ID: 2) (Tetradesmus obliquus, UniProt A0A383WMN4, N195D); test: In vitro HPPD activity assay; type: biochemical; conditions: for TI (normalized tolerance index): normalized on Arabidopsis wild-type HPPD (SEQ ID NO:42)
Description: as §1, §2, §3, §4, §5, §6, §7, §8, §9

[14] = test system: transgenic Arabidopsis plants (T2) SoHPPD F363I (short); test: Greenhouse spray test, injury evaluation; type: in vivo, Arabidopsis thaliana; conditions: 14 DAT
Description: (§10) Non-transgenic control plants were treated in parallel and pictures taken 14 days after treatment.
(§11) For post emergence treatment, the test plants are first grown to a height of 3 to 15 cm, depending on the plant habit, and only then treated with the herbicides. For this purpose, the test plants are either sown directly and grown in the same containers, or they are first grown separately and transplanted into the test containers a few days prior to treatment.
(§12) Additionally, T1 and T2 transgenic Arabidopsis plants can be tested for improved tolerance to HPPD-inhibiting herbicides in greenhouse studies. Herbicide injury scoring is done 2-3 weeks after treatment and is rated on a scale of 0 to 100%, 0% being no injury and 100% being complete death.
(§13) Transgenic T2 Arabidopsis plants were sprayed with a range of doses from 1.56-25 g/ha of different HPPD-inhibiting herbicides and injury evaluations were taken two weeks after treatment (FIG. 4). As depicted in Table 8, control plants were severely injured by all doses of herbicides applied, with at least 58% of leaf material being damaged at the lowest application rate and 100% leaf damage at the second application rate.

[15] = test system: T2 Arabidopsis plants expressing mutated variants of Scenedesmus HPPD (all traits and events); test: Greenhouse spray test, injury evaluation; type: in vivo, Arabidopsis thaliana; conditions: for leaf damage: two lowest application rates (1.56 g/ha and 6.25 g/ha)
Description: as §10, §11, §12, §13

Scenedesmus HPPD (Seq ID: 2), sequence (A0A383WMN4 entry or part of it N195D): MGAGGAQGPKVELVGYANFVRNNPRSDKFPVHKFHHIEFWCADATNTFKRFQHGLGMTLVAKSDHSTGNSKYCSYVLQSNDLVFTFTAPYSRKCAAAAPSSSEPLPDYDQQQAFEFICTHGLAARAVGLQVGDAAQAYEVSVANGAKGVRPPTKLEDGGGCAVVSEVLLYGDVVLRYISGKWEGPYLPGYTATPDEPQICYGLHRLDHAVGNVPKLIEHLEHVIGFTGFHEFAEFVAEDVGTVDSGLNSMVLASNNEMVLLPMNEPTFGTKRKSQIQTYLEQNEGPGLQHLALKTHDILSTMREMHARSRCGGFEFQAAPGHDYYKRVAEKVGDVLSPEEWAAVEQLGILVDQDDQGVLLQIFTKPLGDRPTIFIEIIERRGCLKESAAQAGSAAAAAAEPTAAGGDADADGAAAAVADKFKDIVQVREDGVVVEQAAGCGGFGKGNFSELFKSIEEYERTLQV
Scenedesmus Short HPPD (Seq ID: 4), sequence (A0A383WMN4 entry or part of it N195D/DEL398-433): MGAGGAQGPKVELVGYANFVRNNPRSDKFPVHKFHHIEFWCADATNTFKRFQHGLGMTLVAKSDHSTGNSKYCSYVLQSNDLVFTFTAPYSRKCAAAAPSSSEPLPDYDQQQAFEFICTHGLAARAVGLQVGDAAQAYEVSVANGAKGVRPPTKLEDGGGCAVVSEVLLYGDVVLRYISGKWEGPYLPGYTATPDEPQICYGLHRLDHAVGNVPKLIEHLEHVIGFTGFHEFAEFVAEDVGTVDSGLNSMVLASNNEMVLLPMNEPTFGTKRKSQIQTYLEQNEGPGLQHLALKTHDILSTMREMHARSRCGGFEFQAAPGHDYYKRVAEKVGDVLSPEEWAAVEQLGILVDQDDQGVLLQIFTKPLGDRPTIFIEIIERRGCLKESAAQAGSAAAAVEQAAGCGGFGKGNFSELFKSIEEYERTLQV

| Structure (SMILES) | TI (normalized tolerance index) [1] | TI (normalized tolerance index) [2] | TI (normalized tolerance index) [3] | TI (normalized tolerance index) [4] | TI (normalized tolerance index) [5] | TI (normalized tolerance index) [6] | TI (normalized tolerance index) [7] | TI (normalized tolerance index) [8] | TI (normalized tolerance index) [9] | TI (normalized tolerance index) [10] | TI (normalized tolerance index) [11] | TI (normalized tolerance index) [12] | TI (normalized tolerance index) [13] | Injury ([14]; Event B, 1.56 g ai/ha) [%] | Injury ([14]; Event B, 6.25 g ai/ha) [%] | Injury ([14]; Event B, 25 g ai/ha) [%] | Injury ([14]; Event C, 1.56 g ai/ha) [%] | Injury ([14]; Event C, 6.25 g ai/ha) [%] | Injury ([14]; Event C, 25 g ai/ha) [%] | leaf damage [15] | also measured |
| --- | --- | --- | --- | --- | --- | --- | --- | --- | --- | --- | --- | --- | --- | --- | --- | --- | --- | --- | --- | --- | --- |
| CC(=O)N(C)c1c(Cl)ccc(C2=C(O)c3ncccc3C(C)(C)S2(=O)=O)c1Cl [Inhibitor 5, N-[2,6-dichloro-3-(8-hydroxy-5,5-dimethyl-6,6-dioxo-thiopyrano[4,3-b]pyridin-7-yl)phenyl]-N-methyl-acetamide] | 0.1 | 0.6 | 0.4 | 0.2 | 0.2 | 0.2 | 0.3 | 0.9 | 0.7 | 0.2 | 0.7 | 1.3 | 0.0 | – | – | – | – | – | – | – | – |
| CS(=O)(=O)c1ccc(C(=O)C2C(=O)CCCC2=O)c([N+](=O)[O-])c1 [Inhibitor 2, 2-(4-methylsulfonyl-2-nitro-benzoyl)cyclohexane-1,3-dione] | 0.0 | 0.8 | 0.2 | 0.1 | 0.1 | 0.1 | 0.7 | 0.6 | 0.8 | 0.1 | 0.1 | 0.0 | 0.5 | 0 | 0 | 3 | 5 | 0 | 0 | did not show leaf injury | – |
| CCSc1ccc(Cl)c(C(=O)Nc2nnnn2C)c1Cl [Inhibitor 8, 2,6-dichloro-3-ethylsulfanyl-N-(1-methyltetrazol-5-yl)benzamide] | 0.5 | not inhibited; also recorded: no inhi- | 0.5 | 0.3 | 0.3 | 0.1 | 0.2 | 0.8 | 1.2 | 0.1 | 0.3 | 0.9 | 0.1 | – | – | – | – | – | – | – | – |
| Cc1c(C(=O)c2cnn(C)c2O)ccc(S(C)(=O)=O)c1C1=NOCC1 [Inhibitor 1, [3-(4,5-dihydroisoxazol-3-yl)-2-methyl-4-methylsulfonyl-phenyl]-(5-hydroxy-1-methyl-pyrazol-4-yl)methanone] | – | – | – | – | – | – | – | – | – | – | – | – | – | 0 | 0 | 0 | 0 | 0 | 0 | 0-8% | leaf material being damaged ([15]; 25 g/ha): less than 20%; Ki [12]: 46 nM; Ki [13]: 11 nM |
| CCS(=O)(=O)c1cc(C(F)(F)F)ccc1C1=C(O)c2ncccc2C(C)(C)S1(=O)=O [Inhibitor 4, 7-[2-ethylsulfonyl-4-(trifluoromethyl)phenyl]-5,5-dimethyl-6,6-dioxo-thiopyrano[4,3-b]pyridin-8-ol] | 0.2 | 0.3 | 0.6 | 0.0 | 0.3 | 0.4 | 0.0 | 1.3 | 1.0 | 0.3 | 0.5 | 1.4 | 0.1 | – | – | – | – | – | – | – | – |

Source: patent publication US11248234B2, “Herbicide-resistant hydroxyphenylpyruvate dioxygenases” (BASF SE, priority 2015, dated 2022)
